Experimental data reported in patent publication US20140294873A1, “SMALL MOLECULE SCREEN FOR INHIBITORS OF NFAT: AP-1: DNA INTERACTIONS” (CHILDREN'S MEDICAL CENTER CORPORATION, priority 2011, published 2014).
“Also recorded” adds a separate entry of the source.

T1: NFAT:DNA complex (Homo sapiens, UniProt Q13469)
T1 construct: The NFAT DBD containing a His tag was cloned into the pQE vector; His tag (MRGSHHHHHH leader) (N); made in house
T1 sequence (Q13469 with tags, fused parts or gaps): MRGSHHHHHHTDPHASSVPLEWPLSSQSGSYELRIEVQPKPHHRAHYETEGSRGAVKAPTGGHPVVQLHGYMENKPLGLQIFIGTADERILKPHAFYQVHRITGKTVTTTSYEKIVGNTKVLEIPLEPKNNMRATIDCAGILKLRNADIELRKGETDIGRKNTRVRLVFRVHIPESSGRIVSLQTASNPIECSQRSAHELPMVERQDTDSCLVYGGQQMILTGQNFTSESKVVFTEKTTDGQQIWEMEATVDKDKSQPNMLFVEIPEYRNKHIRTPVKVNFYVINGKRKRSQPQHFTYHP

T2: NFAT DNA-binding domain (NFAT-DBD) (UniProt Q13469 SEQ:15-300)
T2 chain: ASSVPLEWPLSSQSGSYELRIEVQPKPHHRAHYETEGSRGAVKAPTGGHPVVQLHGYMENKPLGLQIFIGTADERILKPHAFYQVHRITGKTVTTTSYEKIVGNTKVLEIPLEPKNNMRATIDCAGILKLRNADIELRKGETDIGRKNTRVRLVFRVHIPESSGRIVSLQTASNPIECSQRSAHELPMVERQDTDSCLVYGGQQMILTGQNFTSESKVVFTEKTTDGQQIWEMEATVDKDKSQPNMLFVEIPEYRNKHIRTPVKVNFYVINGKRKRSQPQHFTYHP


How the values were obtained:
[1] = system: IFNγ production in 2D2 CD4 T cells; assay: IFNγ production after compound treatment during Th1 activation; type: cell-based, mouse; details: 7.8 μM during activation under Th1 conditions, compared to DMSO
Method: (§1) T cell activation assays: Mouse CD4 T cells were isolated using the Dynal CD4 T cell positive isolation kit (Invitrogen) and activated with 1 μg/mL αCD3/αCD28 for 48-60 h under non-polarizing or Th1-conditions (10 ng/mL IL-12 and 10 μg/mL αIL-4). CD4CD25+ T cells were depleted from purified CD4 T cells using a CD25 microbead MACS kit (Miltenyi Biotech), and CD4CD25− T cells were activated with αCD3/αCD28 in the presence of 3 ng/mL TGF[…] (iTreg-polarizing conditions).
(§2) For restimulation, T cells from primary cultures were rested for 3-4 d, washed, counted and stimulated for 4 h with 10 nM PMA and varied concentrations of ionomycin; where indicated, CsA was added to cells at a final concentration of 2 μM 20′ before activation while compounds were added 45-60′ before activation. Brefeldin A was added at 10 μg/mL for the final 2-2.5 h of stimulation. T cells were fixed with 4% paraformaldehyde, permeabilized in saponin buffer and stained for intracellular cytokines; data were collected on a FACSCalibur instrument (BD Biosciences).

NFAT:AP-1:DNA complex = target: T3, NFAT:AP-1:DNA complex (Homo sapiens, UniProt P01100+P05412+Q13469, C154S/C269S); assay: EMSA, NFAT:AP-1:DNA complex formation; type: binding; details: for assembly of the ternary complex: 6.25 mM compound; for inhibition of formation of the NFAT:AP-1:DNA complex: 32P end-labeled ARRE2, compound added before probe; for inhibition of NFAT:AP-1:DNA complex formation: compound in the 0-300 μM range
T3 construct: The NFAT DBD containing a His tag was cloned into the pQE vector; Fos and Jun bZIP domains (each encompassing 63 amino acids) were cloned into pETa vectors; His tag ([…] leader) (N); made in house; host or cells: E. coli Codon Plus BL21 (DE3) RIL for Fos and Jun; bacterial expression from a pQE vector for NFAT DBD
T3 sequence (P01100 with tags, fused parts or gaps C154S, one chain of several): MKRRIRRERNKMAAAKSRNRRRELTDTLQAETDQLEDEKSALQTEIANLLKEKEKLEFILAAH
T3 sequence (P05412 with tags, fused parts or gaps C269S, one chain of several): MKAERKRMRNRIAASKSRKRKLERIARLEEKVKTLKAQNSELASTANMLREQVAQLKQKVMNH
Method: (§3) EMSAs: Probe labeling: Annealed double-stranded ARRE2 was end-labeled using T4 polynucleotide kinase by incubating 50-100 ng DNA with 20 μCi 32P-γATP (Perkin Elmer) at 37° C. for 1 h followed by heat inactivation of the enzyme at 65° C. for 15′ and purification of radiolabeled ARRE2 using MicroSpin G-25 columns (GE Biosciences).
(§4) Binding reactions were set up in EMSA buffer (10 mM HEPES pH=7.5, 120 mM NaCl, 10% glycerol, 0.8 mg/mL BSA, 1 mM DTT) in the presence of complete protease inhibitor (Roche). Compounds CID 2740816 (1668 P02) and CID 5713461 (1661 N20) (Ryan Scientific) were resuspended in DMSO and incubated with 20 nM NFAT and 10 nM AP-1 for 10′ followed by addition of ˜2.5 nM radiolabeled ARRE2 probe. Reactions were then incubated for 30′ at room temperature and loaded on a 4% polyacrylamide gel (pre-run for 30-45′).

NFAT:DNA complex = target: T1, NFAT:DNA complex; assay: EMSA, NFAT:DNA complex; type: binding; details: high concentration (6.25 mM)
Method: as §3, §4

[2] = system: IL-2 and TNFα production in activated CD4 T cells; assay: Intracellular cytokine FACS in restimulated CD4 T cells; type: cell-based, mouse; details: for inhibition of IL-2/TNFα production: restimulation with αCD3/αCD28 instead of PMA/ionomycin
Method: as §1, §2

EAE in C57BL/6 mice = assay: Passive transfer EAE with compound-treated 2D2 Th1 cells; type: in vivo, mouse
Method: EAE induction: CD4 T cells from 2D2 transgenic mice were activated with 0.2 μg/mL αCD3/αCD28 under Th1-polarizing conditions for 48-60 h in the presence of DMSO or compound as indicated. T cells were rested and expanded for 2 d followed by restimulation with 0.1 μg/mL αCD3/αCD28 for 24 h in the presence of DMSO or compound. Cells were resuspended in 1×PBS and injected intraperitoneally into female 8 wk old C57BL/6 mice, 1.5 million T cells per mouse. Mice were monitored for weight loss and development of disease symptoms using a standard clinical scale: 0, healthy; 1, flaccid tail; 2, ataxia/paresis of hind limbs; 3, paralysis of hind limbs; 4, tetraparalysis; 5, moribund or death W.

IL-17 in CD4 T cells = assay: IL-17 levels after compound treatment during primary Th17 differentiation; type: cell-based, mouse
[3] = system: proinflammatory mediator mRNA in Th1 cells; assay: Real time RT-PCR of T cells used for EAE induction; type: cell-based, mouse; details: for IL-2 mRNA transcript / IL-24 transcript levels / IP-10 transcript levels: compared to DMSO controls
Description: (§5) Real time RT-PCR: Total RNA was isolated from cell pellets using the RNeasy kit (Qiagen) followed by first-strand synthesis using SuperScript III (Invitrogen). Synthesized cDNA was amplified using the FastStart Universal SYBRGreen Master Mix (Roche). PCR data was collected using the StepOne Plus Real-Time PCR System (Applied Biosystems) and gene expression normalized to an endogenous GAPDH control using the ΔΔCT method; primer sequences have been described elsewhere.

CD69 = CD69 upregulation in restimulated CD4 T cells; type: cell-based, mouse; details: 4 h activation period, also at high concentrations
Method: as §2

Foxp3 = assay: Treg-associated gene upregulation under iTreg-polarizing conditions (real time RT-PCR); type: cell-based, mouse; details: activation in the presence of TGFβ (iTreg polarizing)
Method: as §1, §5

CD4 T cells = assay: Cytotoxicity / live cell numbers in restimulated CD4 T cells; type: cell-based, mouse; details: for cell numbers within the live cell gate: 4 h restimulation with compound; for cytotoxicity: at the concentrations tested
Method: as §2

[4] = target: T2, NFAT DNA-binding domain (NFAT-DBD); assay: EMSA; details: tags: His tag (MRGSHHHH..), pQE vector, E. coli; label: 32P 5'-end
[5] = 10 nM PMA, ionomycin 100 nM or 300 nM
[6] = 10 nM PMA/100 nM ionomycin, 4 h
[7] = Th1 cells treated with 7.8 μM compound, IP transfer
[8] = compared to 1668 P02- or DMSO-treated Th1 transfer groups

| Molecule | levels of IFNγ production [1] | assembly of the ternary complex (NFAT:AP-1:DNA complex) | inhibition of formation of the NFAT:AP-1:DNA complex (NFAT:AP-1:DNA complex) | inhibition of NFAT:AP-1:DNA complex formation (NFAT:AP-1:DNA complex) | effect on the NFAT:DNA complex (NFAT:DNA complex) | inhibition of IL-2 and TNFα production [2, 6] | inhibition of IL-2 and TNFα production ([2]; 10 nM PMA/500 nM ionomycin) | inhibition of IL-2/TNFα production [2] | IL-17 levels upon restimulation (IL-17 in CD4 T cells) | IL-2 mRNA transcript [3] | IL-24 transcript levels [3] | IP-10 transcript levels [3] | upregulation of CD69 (CD69) | upregulation of Treg-associated genes, notably Foxp3 (Foxp3) | cell numbers within the live cell gate (CD4 T cells) | cytotoxicity (CD4 T cells) | other results |
| --- | --- | --- | --- | --- | --- | --- | --- | --- | --- | --- | --- | --- | --- | --- | --- | --- | --- |
| N#C/C(=N/Nc1ccc2c(c1)OCO2)C(=O)N1CCCC1 [1661 N20] | slight decrease | almost abrogate | modestly inhibit | modest inhibition | unaffected; also recorded: neither compound had an inhibitory effect | inhibit production | inhibitory | acute inhibition | remained unchanged | highly significant reduction | remained unchanged | actually higher | not affected; also recorded: unaffected | did not affect | no apparent change; also recorded: unchanged | neither compound appeared to be cytotoxic | reduction in MFI of IL-2 [2, 5]: ≤ 50%; reduction in MFI of TNFα [2, 5]: ≤ 50%; kinetics of disease development (EAE in C57BL/6 mice; [7]): clearly delayed kinetics; severity of clinical symptoms of EAE (EAE in C57BL/6 mice; [7]): reduced severity; also recorded: decreased severity; mean clinical score (EAE in C57BL/6 mice; [8]): significantly lower; percentage weight loss (EAE in C57BL/6 mice; [8]): significantly lower; GM-CSF transcript levels ([3]; relative to DMSO controls): significantly reduced; levels of IFNγ mRNA ([3]; relative to DMSO controls): significantly reduced |
| O=C1CCCC(=O)C1=NNc1cc(C(F)(F)F)ccc1OCC(F)(F)F [1668 P02] | slight decrease | almost abrogate | modestly inhibit | modest inhibition | unaffected; also recorded: neither compound had an inhibitory effect | inhibit production | to a lesser extent | acute inhibition | remained unchanged | not statistically significant | remained unchanged | actually higher | not affected; also recorded: unaffected | did not affect | no apparent change; also recorded: unchanged | neither compound appeared to be cytotoxic | disease curve relative to DMSO-treated Th1 transfer group (EAE in C57BL/6 mice; Th1 cells treated with compound, IP transfer): overlapping disease curves |
| ARRE2 probe, 32P (dsDNA) DNA 1: CCTTCTGTATGAAACAAATTTTCCTCTTTG DNA 2: CAAAGAGGAAAATTTGTTTCATACAGAAGG | – | – | – | – | – | – | – | – | – | – | – | – | – | – | – | – | binding result [4]: binds |
